# Measured values from US6506790B1, “Compounds and methods” (SmithKline Beecham Corporation, priority 1999, dated 2003).
structure (smiles),measurement,value
"CNC1CC(C)(C)Oc2cc3c(cc21)C(c1cccc(Cl)c1)CC(C)(C)O3 (stereo not shown) [Example 4, 6-(3-chlorophenyl)-3,4,7,8-tetrahydro-N-methyl-2,2,8,8-tetramethyl-2H,6H-benzo[1,2-b:5,4-b′]dipyran-4-amine]",melting point,190 to 192 °C
